Data reported in publication PMC5014320, “Screen of Non-annotated Small Secreted Proteins of Pseudomonas syringae Reveals a Virulence Factor That Inhibits Tomato Immune Proteases” (PLoS Pathogens, 2016).
Counter-ions that a name gives are not always drawn.

Experiments:
papain [1] = biological target: T1, papain (Carica papaya, UniProt P00784); assay: chromogenic protease assay, Lineweaver-Burk; format: biochemical; settings: pH 6.8, 1 mM glutathione, 37 °C, 0.1-5 mM BAPNA
T1 construct: commercial purified papain (Sigma-Aldrich)
T1 sequence (P00784 134-345): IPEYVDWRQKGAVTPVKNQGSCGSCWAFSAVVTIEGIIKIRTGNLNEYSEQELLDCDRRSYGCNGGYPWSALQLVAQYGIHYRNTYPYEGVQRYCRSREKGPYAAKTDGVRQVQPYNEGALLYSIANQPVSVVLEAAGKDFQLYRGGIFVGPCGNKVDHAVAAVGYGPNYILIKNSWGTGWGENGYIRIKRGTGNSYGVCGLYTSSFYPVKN

papain [2] = biological target: papain (UniProt P00784); assay: enzyme inhibition kinetics (Lineweaver-Burk)

Compound | chromogenic protease assay, Lineweaver-Burk (papain [1]) | Ki (papain [2]) [nM]
N=C(N)NCCC[C@H](NC(=O)c1ccccc1)C(=O)Nc1ccc([N+](=O)[O-])cc1 [BAPNA, Nα-Benzoyl-L-arginine 4-nitroanilide hydrochloride] | classical protease inhibition assays on purified papain using the chromogenic substrate BAPNA | 
C14-inhibiting protein-1 (Cip1), wild type (natural protein) |  | 3.98
